Reference: patent US12370143B2, “Compound or salt thereof and lipid particles” (FUJIFILM Corporation, priority 2018, dated 2025)
Where two headings read alike, the source gives them in different places.

Experiments:
[1] = Encapsulation rate of siRNA in nucleic acid lipid particles (Luc2-siRNA); assay type: physicochemical; conditions: compound/DSPC/cholesterol/DMG-PEG2000 50/10/38.5/1.5
Procedure: (§1) The compounds described in Table 2, L-α-distearoylphosphatidylcholine (trade name: COATSOME® MC-8080; NOF corporation), cholesterol (trade name: Choesterol HP; NIPPON FINE CHEMICAL CO., LTD.), and 1,2-dimyristoyl-rac-glycero-3-(methylpolyoxyethylene 2000) (hereinafter, called DMG-PEG2000) (trade name: SUNBRIGHT® GM-020; NOF corporation) were dissolved in ethanol at a molar ratio of 50/10/38.5/1.5 such that the total lipid concentration became 20 mmol/L, thereby obtaining an oil phase.
(§2) An aqueous nucleic acid solution obtained by dissolving 5 mg of Luc2-siRNA having the sequence described in Biomacromolecules (2013) 14, p. 3905 in 1 mL of sterile water was diluted with 10 mmol/L acetate buffer having a pH 4 such that the nucleic acid concentration became 19.7 μmol/L, thereby obtaining a water phase. Then, the water phase and the oil phase were mixed together by a micromixer (see JP5288254B) using a syringe pump such that the volume ratio of water phase:oil phase became 3:1 (final ratio of siRNA/lipid=339 (mol/mol)), and the mixed solution was diluted 2× with PBS, thereby obtaining a dispersion liquid of nucleic acid lipid particles. The dispersion liquid was dialyzed (Slide-A-Lyzer G2, MWCO: 10 kD, Thermo Fisher Scientific) using a phosphate buffered saline such that ethanol was removed, thereby obtaining nucleic acid lipid particles.
A 3 mol/L aqueous sodium acetate solution (30 μL) and 9 μL of glycogen were added to 60 μL of the lipid particles retaining nucleic acids, and then 1.5 mL of ethanol was added thereto such that only the nucleic acids were precipitated while the lipid was dissolved. Then, the supernatant was removed by centrifugation. After the precipitates were air-dried for 15 minutes or longer, water was added thereto such that the precipitates were redissolved, and the concentration thereof was measured using Nanodrop NF1000 (Thermo Fisher Scientific), thereby quantifying the total nucleic acid concentration.
The nucleic acid concentration was quantified using a Quant-iT RiboGreen RNA Assay Kit (Thermo Fisher Scientific) according to the protocol. First, a 20×TE buffer included in the above kit was diluted with water, thereby obtaining a 1×TE buffer. TE represents Tris/EDTA (ethylenediaminetetraacetic acid). In order to quantify only the nucleic acid in the outer water phase, the dispersion liquid of lipid particles retaining nucleic acids was diluted 10,000× with the 1×TE buffer.
The 10,000× diluted dispersion liquid of lipid particles (100 μL) was put in a 96-well plate, then 100 μL of a RiboGreen reagent (reagent included in the Quanti-iT Ribogreen RNA Assay Kit described above) diluted 2000× with the 1×TE buffer was added to a sample, and fluorescence (excitation wavelength: 485 nm, fluorescence wavelength: 535 nm) was measured using a plate reader Infinit EF200 (TECAN), thereby quantifying the nucleic acid concentration in the outer water phase.
By using the total nucleic acid concentration obtained through the above steps and the quantified nucleic acid concentration in the outer water phase, the nucleic acid encapsulation rate of the nucleic acid lipid particles was calculated according to the following Equation. Nucleic acid encapsulation rate (%)=(total nucleic acid concentration−nucleic acid concentration in outer water phase)/total nucleic acid concentration×100 The results are shown in Table 2.

[2] = tested on: DMS273 cells constantly expressing Luc; assay: Target reporter protein (Luc) knockdown in cell, reporter protein assay; assay type: cell-based; conditions: Homo sapiens, DMS-273
Procedure: The nucleic acid lipid particles prepared by the same method as that in <Preparation of nucleic acid lipid particles> by using the compounds described in Table 3 were evaluated by reporter assay by the following method.
By using pGL4.50 Luc2 (E1310 Promega), DMS273 cells (human small cell lung cancer) (European Collection of Authenticated Cell Cultures) constantly expressing Luc were prepared. RPMI (Gibco) (10% FBS (Gibco), 1% Penicillin-Streptomycin (Gibco), and 200 μg/mL Hygromycin (Wako)) was used as a culture medium. DMS273 cells (2.0×10^3) constantly expressing luciferase (Luc) were seeded in a 96-well plate and cultured in a 5% CO2 incubator for 24 hours, and then the medium was replaced. Then, 10 μL of each of the dispersion liquids of lipid particles diluted with PBS (Gibco) to yield a concentration of 1 to 1,000 nmol/L was added to the 96-well plate, and the final concentration was adjusted to 0.1 to 100 nmol/L (total amount of liquid: 110 μl). Thereafter, the cells were cultured in a 5% CO2 incubator for 24 hours, the medium was then replaced, and the cells were further cultured for 24 hours.
After the viable cell count was determined, the expression amount of Luc was quantified using a Steady Glo assay kit (Promega), and the knockdown efficiency was calculated according to the following equation. Then, the IC50 concentration at which the expression amount of Luc was knocked down to 50% was calculated.

[3] = Particle size of nucleic acid lipid particles (Luc2-siRNA); assay type: physicochemical; conditions: compound/DSPC/cholesterol/DMG-PEG2000 50/10/38.5/1.5
Procedure: By using the dispersion liquid of lipid particles as it was, the particle size of the lipid particles was measured using a zeta potential/particle size measurement system ELS-Z2 (Otsuka Electronics Co., Ltd.).
as §1, §2
The particle size of the nucleic acid lipid particles was measured by the same method as that in <Preparation of lipid particles>.

[4] = Luc2-siRNA lipid particles using the compound, siRNA 0.1 to 100 nmol/L, concentration at which Luc expression is knocked down to 50%, read-out: IC50

SMILES | Nucleic acid encapsulation rate [1] | IC50 [2] | Particle size (nm) [3] | IC50 [2, 4]
CCCCC/C=C\C/C=C\CCCCCCCCN(CCCCCCCC/C=C\C/C=C\CCCCC)C(=O)OCCN(C)C [Comparative Example 3, reference compound] | 80% | > 100 nM | 72.4 nm | –
CCCCC/C=C\C/C=C\CCCCCCCCC(CCCCCCCC/C=C\C/C=C\CCCCC)OC(=O)OCCN(C)C [Comparative Example 4, 2-(Dimethylamino)ethyl((6Z,9Z,28Z,31Z)-heptatriaconta-6,9,28,31-tetraen-19-yl)carbonate, reference compound] | 77% | > 100 nM | 62.8 nm | –
CCCCC/C=C\C/C=C\CCCCCCCCN(CCCCCCCC/C=C\C/C=C\CCCCC)C(=O)OCCN1CCN(C)CC1 [Comparative Example 5, 2-(4-Methylpiperazin-1-yl)ethyl di((9Z,12Z)-octadeca-9,12-dien-1-yl)carbamate, reference compound] | 87% | – | 75.1 nm | > 100 nM
CCCCC/C=C\C/C=C\CCCCCCCCN(CCCCCCCC/C=C\C/C=C\CCCCC)C(=O)CN(C)CCN(C)C [Comparative Example 6, 2-((2-(dimethylamino)ethyl)(methyl)amino)-N,N-di((9Z,12Z)-octadeca-9,12-dien-1-yl)acetamide, reference compound] | 89% | – | 81.9 nm | > 100 nM
CCCCCCCC/C=C\CCCCCCCC(=O)OCCCCCCC(CCCCCCOC(=O)CCCCCCC/C=C\CCCCCCCC)OC(=O)OCCN(CC)CCN(C)C [Example 36, 7-(((2-((2-(dimethylamino)ethyl)(ethyl)amino)ethoxy)carbonyl)oxy)tridecane-1,13-diyldioleate] | – | 11 nM | – | –
CCCCCC(CCCCC)C(=O)OCCCCCCC(CCCCCCOC(=O)C(CCCCC)CCCCC)OC(=O)OCCN(CC)CCN(CC)CC [Example 60, 7-(((2-((2-(Diethylamino)ethyl)(ethyl)amino)ethoxy)carbonyl)oxy)tridecane-1,13-diylbis(2-pentylheptanoate)] | – | – | – | 1 nM
CCCCCCCCC(CCCCCC)COC(=O)CCCC(CCCCCC)OC(=O)OCCN(CC)CCN(CC)CC (stereo not drawn) [Example 82, 2-Hexyldecyl 3,6-diethyl-12-hexyl-10-oxo-9,11-dioxa-3,6-diazahexadecan-16-oate] | 78% | – | 77 nm | –
CCCCCCC(CCCC)COC(=O)CCCCCCCCC(CCCCCC)OC(=O)OCCN(CCO)CCN(CC)CC (stereo not drawn) [Example 85, 2-Butyloctyl 3-ethyl-12-hexyl-6-(2-hydroxyethyl)-10-oxo-9,11-dioxa-3,6-diazahenicosan-21-oate] | 86% | – | 246.6 nm | –
CCCCCCC(CCCC)COC(=O)CCCCCCCCC(CCCCCC)OC(=O)OCCN(CCO)CCCN(CC)CC (stereo not drawn) [Example 90, 2-Butyloctyl 3-ethyl-13-hexyl-7-(2-hydroxyethyl)-11-oxo-10,12-dioxa-3,7-diazadocosan-22-oate] | 60% | – | 169.3 nm | –
CCCCCCC(CCCC)COC(=O)CCCCCCC(CCCCCC)OC(=O)OCCN(CCN(CC)CC)C(C)C (stereo not drawn) [Example 92, 2-Butyloctyl 3-ethyl-12-hexyl-6-isopropyl-10-oxo-9,11-dioxa-3,6-diazanonadecan-19-oate] | 73% | – | 90.5 nm | –
CCCCCCC(CCCC)COC(=O)CCCCC(CCCCCC)OC(=O)OCCN(CCN(CC)CC)C(C)C (stereo not drawn) [Example 95, 2-Butyloctyl 3-ethyl-12-hexyl-6-isopropyl-10-oxo-9,11-dioxa-3,6-diazaheptadecan-17-oate] | 83% | – | 95.5 nm | –
CCCCCCCCC(CCCCCC)COC(=O)CCCCC(CCCCCC)OC(=O)OCCN(CCN(CC)CC)C(C)C (stereo not drawn) [Example 96, 2-Hexyldecyl 3-ethyl-12-hexyl-6-isopropyl-10-oxo-9,11-dioxa-3,6-diazaheptadecan-17-oate] | 88% | – | 72.9 nm | –
CCCCCCCCC(CCCCCC)COC(=O)CCCCCCCCC(CCCCCC)OC(=O)OCCN(CCO)CCN(CC)CC (stereo not drawn) [Example 97, 2-Hexyldecyl 3-ethyl-12-hexyl-6-(2-hydroxyethyl)-10-oxo-9,11-dioxa-3,6-diazahenicosan-21-oate] | 82% | – | 142 nm | –
CCCCCCCCC(CCCCCC)COC(=O)CCC(CCCCCC)OC(=O)OCCN(CCN(CC)CC)C(C)C (stereo not drawn) [Example 114, 2-Hexyldecyl 3-ethyl-12-hexyl-6-isopropyl-10-oxo-9,11-dioxa-3,6-diazapentadecan-15-oate] | 69% | – | 80.1 nm | –
CCCCCCCC/C=C\CCCCCCCCOC(=O)CCCC(CCCCCC)OC(=O)OCCN(CCN(CC)CC)C(C)C (stereo not drawn) [Example 115, (Z)-octadec-9-en-1-yl 3-ethyl-12-hexyl-6-isopropyl-10-oxo-9,11-dioxa-3,6-diazahexadecan-16-oate] | 69% | – | 88.6 nm | –
CCCCCCC(CCCCCCCCC(=O)OCCC(CCCCC)CCCCC)OC(=O)OCCN(CCO)CCN(CC)CC (stereo not drawn) [Example 123, 3-Pentyloctyl 3-ethyl-12-hexyl-6-(2-hydroxyethyl)-10-oxo-9,11-dioxa-3,6-diazahenicosan-21-oate] | 66% | – | 257 nm | –
CCCCCCCCC(CCCCCC)COC(=O)CCCCCCCCC(CCCCC)OC(=O)OCCN(CCN(CC)CC)C(C)C (stereo not drawn) [Example 127, 2-Hexyldecyl 3-ethyl-6-isopropyl-10-oxo-12-pentyl-9,11-dioxa-3,6-diazahenicosan-21-oate] | 71% | – | 80.7 nm | –
CCCCCCC(CCCCCCCCC(=O)OCC(CCCCC)CCCCC)OC(=O)OCCN(CCO)CCN(CC)CC (stereo not drawn) [Example 128, 2-Pentylheptyl 3-ethyl-12-hexyl-6-(2-hydroxyethyl)-10-oxo-9,11-dioxa-3,6-diazahenicosan-21-oate] | 62% | – | 255 nm | –
CCCCCCCCC(CCCCCC)COC(=O)CCCCCCCCC(CCCCC)OC(=O)OCCN(CCO)CCN(CC)CC (stereo not drawn) [Example 131, 2-Hexyldecyl 3-ethyl-6-(2-hydroxyethyl)-10-oxo-12-pentyl-9,11-dioxa-3,6-diazahenicosan-21-oate] | 41% | – | 291 nm | –
CCCCCCCCC(CCCCCC)COC(=O)CCCCCCCCC(CCCCC)OC(=O)OCCN(CCOC(=O)CCCCCCC)CCN(CC)CC (stereo not drawn) [Example 132, 2-Hexyldecyl 3-ethyl-6-(2-(octanoyloxy)ethyl)-10-oxo-12-pentyl-9,11-dioxa-3,6-diazahenicosan-21-oate] | 76% | – | 98.4 nm | –
